Assay results reported in ChEMBL document CHEMBL1153990, “Exploring the PI3K alpha and gamma binding sites with 2,6-disubstituted isonicotinic derivatives” (Bioorg Med Chem Lett, 2009).

Tests used:
[1] = target: Phosphatidylinositol 4,5-bisphosphate 3-kinase catalytic subunit alpha isoform (Homo sapiens, UniProt P42336); test: Inhibition of PI3Kalpha by luminescent kinase glo assay; conditions: for inhibition: concentration not given here
[2] = target: Phosphatidylinositol 4,5-bisphosphate 3-kinase catalytic subunit gamma isoform (Homo sapiens, UniProt P48736); test: Inhibition of PI3Kgamma by luminescent kinase glo assay
Sequence of Phosphatidylinositol 4,5-bisphosphate 3-kinase catalytic subunit gamma isoform (P48736 whole entry, canonical isoform): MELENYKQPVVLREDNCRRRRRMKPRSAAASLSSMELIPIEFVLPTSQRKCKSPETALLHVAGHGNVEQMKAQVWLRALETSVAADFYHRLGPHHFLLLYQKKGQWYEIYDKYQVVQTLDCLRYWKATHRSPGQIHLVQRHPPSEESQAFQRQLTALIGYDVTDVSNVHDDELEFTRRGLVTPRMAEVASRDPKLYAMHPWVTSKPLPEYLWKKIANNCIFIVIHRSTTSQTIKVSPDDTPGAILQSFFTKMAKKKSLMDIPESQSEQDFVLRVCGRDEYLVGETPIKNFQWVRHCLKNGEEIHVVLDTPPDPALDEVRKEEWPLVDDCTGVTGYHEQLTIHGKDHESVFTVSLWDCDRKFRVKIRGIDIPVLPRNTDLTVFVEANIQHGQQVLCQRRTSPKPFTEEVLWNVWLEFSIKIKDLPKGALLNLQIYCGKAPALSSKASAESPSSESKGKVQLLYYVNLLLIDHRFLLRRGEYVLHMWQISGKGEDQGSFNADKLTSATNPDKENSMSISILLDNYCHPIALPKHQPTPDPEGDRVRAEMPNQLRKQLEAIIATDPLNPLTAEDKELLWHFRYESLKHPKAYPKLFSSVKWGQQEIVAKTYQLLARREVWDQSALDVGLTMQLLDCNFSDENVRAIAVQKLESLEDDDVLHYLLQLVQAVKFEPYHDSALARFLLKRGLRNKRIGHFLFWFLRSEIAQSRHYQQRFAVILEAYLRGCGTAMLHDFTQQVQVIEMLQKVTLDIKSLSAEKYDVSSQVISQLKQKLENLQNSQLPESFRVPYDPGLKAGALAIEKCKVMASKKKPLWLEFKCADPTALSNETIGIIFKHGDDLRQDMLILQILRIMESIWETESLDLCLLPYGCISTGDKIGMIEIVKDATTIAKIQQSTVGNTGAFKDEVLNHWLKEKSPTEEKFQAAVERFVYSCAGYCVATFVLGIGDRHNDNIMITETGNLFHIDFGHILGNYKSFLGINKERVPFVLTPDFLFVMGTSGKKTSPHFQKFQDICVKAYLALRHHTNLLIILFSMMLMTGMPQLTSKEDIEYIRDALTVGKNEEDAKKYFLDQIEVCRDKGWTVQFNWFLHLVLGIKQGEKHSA

[3] = Selectivity ratio of IC50 for PI3Kgamma to IC50 for PI3Kalpha

Sequence of Phosphatidylinositol 4,5-bisphosphate 3-kinase catalytic subunit alpha isoform (P42336 whole entry, canonical isoform): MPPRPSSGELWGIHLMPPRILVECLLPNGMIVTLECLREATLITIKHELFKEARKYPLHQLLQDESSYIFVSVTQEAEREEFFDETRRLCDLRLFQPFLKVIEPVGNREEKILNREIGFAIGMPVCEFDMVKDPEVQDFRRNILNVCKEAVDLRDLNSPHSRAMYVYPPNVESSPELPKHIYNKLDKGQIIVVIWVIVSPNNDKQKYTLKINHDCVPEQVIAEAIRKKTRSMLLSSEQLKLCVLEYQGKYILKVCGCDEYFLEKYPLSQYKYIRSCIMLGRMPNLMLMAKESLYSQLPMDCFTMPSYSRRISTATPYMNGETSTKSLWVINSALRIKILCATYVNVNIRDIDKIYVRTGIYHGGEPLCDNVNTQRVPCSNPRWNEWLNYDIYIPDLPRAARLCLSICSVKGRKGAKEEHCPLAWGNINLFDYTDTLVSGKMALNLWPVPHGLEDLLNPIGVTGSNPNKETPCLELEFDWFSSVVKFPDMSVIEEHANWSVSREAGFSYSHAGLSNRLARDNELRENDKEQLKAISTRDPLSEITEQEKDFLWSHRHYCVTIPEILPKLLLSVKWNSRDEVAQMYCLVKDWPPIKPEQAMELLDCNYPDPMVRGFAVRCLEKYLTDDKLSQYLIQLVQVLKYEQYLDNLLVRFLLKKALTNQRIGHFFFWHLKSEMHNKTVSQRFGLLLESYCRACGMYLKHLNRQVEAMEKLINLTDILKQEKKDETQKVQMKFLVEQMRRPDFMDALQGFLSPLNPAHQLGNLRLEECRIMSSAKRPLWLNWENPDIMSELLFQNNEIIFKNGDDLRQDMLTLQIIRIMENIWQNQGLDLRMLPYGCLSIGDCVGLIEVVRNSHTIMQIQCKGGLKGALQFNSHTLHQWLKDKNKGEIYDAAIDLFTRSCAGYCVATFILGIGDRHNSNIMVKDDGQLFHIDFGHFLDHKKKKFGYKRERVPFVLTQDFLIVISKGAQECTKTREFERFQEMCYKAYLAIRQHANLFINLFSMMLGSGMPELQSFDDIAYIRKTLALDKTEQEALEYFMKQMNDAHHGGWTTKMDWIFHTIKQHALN

O=C(O)c1ccnc(N2CCOCC2)c1
IC50 [1]: 36 µM | IC50 [2]: > 100 µM

Cc1cc(F)ccc1NCc1cc(C(=O)O)cc(-c2ccncc2)n1
IC50 [1]: 29 µM | IC50 [2]: 42 µM

Cc1cc(F)ccc1NCc1cc(C(=O)O)cc(N2CCOCC2)n1
IC50 [1]: 5 µM | IC50 [2]: 34 µM

Cc1cc(F)ccc1NCc1cc(C(=O)O)cc(N2CCC(O)C2)n1 (stereo not drawn)
IC50 [1]: > 100 µM | IC50 [2]: > 100 µM

Cc1cc(F)ccc1NCc1cc(C(=O)O)cc(-c2ccc(O)cc2)n1
IC50 [1]: 100 µM | IC50 [2]: 100 µM

Cc1cc(F)ccc1OCc1cc(C(=O)O)cc(N2CCOCC2)n1
IC50 [1]: 7 µM | IC50 [2]: 23 µM | Ratio IC50 [3]: 6

Cc1cc(F)ccc1OCc1cc(C(=O)NCCO)cc(N2CCOCC2)n1
IC50 [1]: ≥ 50 µM | IC50 [2]: ≥ 50 µM

Cc1cc(F)ccc1NCc1cc(C(=O)O)cc(NCCO)n1
IC50 [1]: 100 µM | IC50 [2]: > 100 µM

Cc1cc(F)ccc1NCc1cc(C(=O)O)cc(N2CCCCC2)n1
inhibition [1]: < 10% | IC50 [2]: > 100 µM

Cc1cc(F)ccc1OCc1cc(C(=O)NO)cc(N2CCOCC2)n1
IC50 [1]: ≥ 10 µM | IC50 [2]: 10 µM

Cc1cc(F)ccc1NCc1cc(C(=O)O)cc(N2CCNCC2)n1
IC50 [1]: > 100 µM | IC50 [2]: > 100 µM

Cc1cc(F)ccc1NCc1cc(C(=O)O)cc(Cl)n1
IC50 [1]: > 100 µM | IC50 [2]: > 100 µM

Cc1cc(F)ccc1NCc1cc(C(=O)N2CCC(O)C2)cc(N2CCC(O)C2)n1 (stereo not drawn)
IC50 [1]: > 100 µM | IC50 [2]: > 100 µM

Cc1cc(F)ccc1NCc1cc(C=O)cc(N2CCOCC2)n1
IC50 [1]: 100 µM | IC50 [2]: 100 µM

Cc1cc(F)ccc1NCc1cc(CO)cc(N2CCOCC2)n1
IC50 [1]: 20 µM | IC50 [2]: ≥ 100 µM

Cc1cc(F)ccc1NCc1cc(C(=O)O)cc(-c2ccccc2O)n1
IC50 [1]: > 100 µM | IC50 [2]: > 100 µM

CCOC(=O)c1ccnc(N2CCOCC2)c1
IC50 [1]: 51 µM | IC50 [2]: > 100 µM

Cc1cc(F)ccc1NCc1cc(C(=O)NCCO)cc(NCCO)n1
IC50 [1]: > 100 µM | IC50 [2]: > 100 µM

Cc1cc(F)ccc1NCc1cc(C(=O)O)cc(-c2cccc(O)c2)n1
IC50 [1]: 100 µM | IC50 [2]: 42 µM

Cc1cc(F)ccc1NCc1cc(C(=O)O)cc(-c2cccnc2)n1
IC50 [1]: > 100 µM | IC50 [2]: > 100 µM

Cc1cc(F)ccc1OCc1cc(C(N)=O)cc(N2CCOCC2)n1
IC50 [1]: > 10 µM | IC50 [2]: < 10 µM

Cc1cc(F)ccc1NCc1cc(C(=O)O)cc(N(CCO)CCO)n1
IC50 [1]: > 100 µM | IC50 [2]: > 100 µM

Cc1cc(F)ccc1NCc1cc(C(=O)O)cc(N(C)CCO)n1
IC50 [1]: > 100 µM | IC50 [2]: > 100 µM

Cc1cc(F)ccc1NCc1cc(C(=O)O)cc(N2CCCC2)n1
inhibition [1]: < 10% | IC50 [2]: > 100 µM

CCOC(=O)c1cc(COc2ccc(F)cc2C)nc(N2CCOCC2)c1
inhibition [1]: < 10% | IC50 [2]: < 10 µM

CCOC(=O)c1cc(CNc2ccc(F)cc2C)nc(N2CCOCC2)c1
inhibition [1]: < 10% | IC50 [2]: < 10 µM
